Results reported in patent publication US20210015134A1, “CONSUMABLES” (Givaudan S.A., priority 2006, published 2021).

Legend:
[1] = tested on: sweet sensitive panelists; test: Ranking test, near threshold sweetness isointensity of enhancer in water (Example 3b); assay type: in vivo
Experimental: The sensory evaluation was conducted using a ranking method. Samples at ambient temperature were randomly presented in 15 ml blind aliquots (unidentifiable by panelists). […] After tasting each sample, the mouth was rinsed thoroughly with water at ambient temperature prior to tasting the next sample. […] They were asked to rank the samples from low to high with respect to perceived sweet taste.

sucrose sweetness = details: at its sweetness detection threshold; Kroeze et al., Chem. Senses 2000; cited from earlier work
[2] = tested on: sweet sensitive panelists; test: Forced choice test of sweetness enhancers with sweetness rating (Example 2); assay type: in vivo; details: scale 0-10
Experimental: A forced choice test of sweetness enhancers in water, 2% sucrose and 7% sucrose
All sweetness enhancer samples were evaluated at the same concentration, which was selected close to the threshold of each sweetness enhancer, in 0% sucrose (water), 2% sucrose, and 7% sucrose.
The test samples were evaluated by a sensory panel of 10 sweet sensitive panelists. Samples were presented in 3 replicates to each panelist to give n=30 evaluations for each panel. The sensory evaluation was conducted using a forced choice method. Samples were presented blind, unidentifiable by panelists. Three runs at different sucrose concentrations were performed (0% sucrose (water/negative control), 2% sucrose, 7% sucrose). In each run, the sweetness enhancer sample was compared by panelists to a corresponding sample without sweetness enhancer at the same sucrose concentration. Panelists were instructed that they had to choose one of the samples as sweeter. The data was analyzed using beta-binomial analysis. […]
Alternatively, 0% (water), 0.5% and/or 1% and/or 1.5% sucrose were used for samples/corresponding controls and evaluated accordingly.
As a further control, the sweetness enhancer in water was compared to 0.5% and/or 1% and/or 1.5% sucrose. The result determined the sweetness intensity of the sweetness enhancer compound as such, without the sweetness due to the enhancement of sucrose.

Compound | isointensity to sucrose solution ([1]; 2 ppm in water) | NDHC sample sweetness ([1]; 2 ppm in water vs 0.5% sucrose) | NDHC sample sweetness ([1]; 2 ppm in water vs 1% sucrose) | enhancement of sucrose sweetness (sucrose sweetness) | rating 1% sucrose ([2]; rating 2 of Example 12B) | rating 1% sucrose ([2]; rating 2 of Example 12C)
COc1ccc(CCC(=O)c2c(O)cc(O[C@@H]3O[C@H](CO)[C@@H](O)[C@H](O)[C@H]3O[C@@H]3O[C@@H](C)[C@H](O)[C@@H](O)[C@H]3O)cc2O)cc1O [NDHC, Neohesperidin dihydrochalcone] | 0.5 % sucrose | isosweet | less sweet | does not enhance sucrose sweetness |  | 
OC[C@H]1O[C@@](CO)(O[C@H]2O[C@H](CO)[C@@H](O)[C@H](O)[C@H]2O)[C@@H](O)[C@@H]1O [sucrose, α-D-glucopyranosyl-(1→2)-β-D-fructofuranose] |  |  |  |  | 0.81 ± 0.08 | 0.72 ± 0.06
